This passage reports IC50 results from US20230022157A1 (Achillion Pharmaceuticals, Inc., priority 2018, published 2023).

A word on the IC50: it is the concentration that gives 50% inhibition.

In the assay the target is T1, Human Factor D (Homo sapiens, UniProt P00746).
T1 construct: purified from human serum; purchased Complement Technology, Inc; host or cells: human serum (natural protein, not recombinant)
The assay can be described thus: Human Factor D Assay. It is filed as biochemical. As to conditions: Human Factor D 80 nM, substrate Z-L-Lys-SBzl, read-out: IC50 (Stars). The method, boiled down:
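Serum-purified human factor D (80 nM final) preincubated 5 min at room temperature with test compound in 50 mM Tris, 1M NaCl, pH 7.5. Z-L-Lys-SBzl substrate and DTNB then added, each at 100 μM final. IC50 from nonlinear regression of reaction rate against compound concentration.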

Each structure is given as a SMILES string. Where two headings read alike, the source gives them in different places.

T1 sequence (P00746 26-253): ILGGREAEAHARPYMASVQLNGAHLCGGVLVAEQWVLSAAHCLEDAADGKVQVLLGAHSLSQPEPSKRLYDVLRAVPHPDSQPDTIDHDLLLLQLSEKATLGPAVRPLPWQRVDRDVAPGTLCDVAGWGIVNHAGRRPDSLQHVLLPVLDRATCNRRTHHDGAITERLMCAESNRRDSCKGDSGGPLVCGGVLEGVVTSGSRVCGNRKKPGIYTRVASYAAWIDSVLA

`Cc1cc(F)c(Br)nc1NC(=O)[C@@H]1[C@@H]2C[C@@H]2CN1C(=O)Cn1nc(C(N)=O)c2cc(-c3cnc(CO)nc3)nc(C)c21` [Compound 168, 1-(2-((1R,2S,5S)-2-((6-bromo-5-fluoro-3-methylpyridin-2-yl)carbamoyl)-3-azabicyclo[3.1.0]hexan-3-yl)-2-oxoethyl)-5-(2-(hydroxymethyl)pyrimidin-5-yl)-7-methyl-1H-pyrazolo[3,4-c]pyridine-3-carboxamide]: the half-inhibitory concentration (IC50) (Table 2) was < 1000 nM.
Turning to `COCc1ncc(-c2cc(C)c3c(c2)c(C(C)=O)nn3CC(=O)N2[C@H](C(=O)Nc3nc(Br)ccc3C)C[C@@]3(C)C[C@@H]23)cn1` [Compound 60, (1R,3S,5R)-2-(2-(3-acetyl-5-(2-(methoxymethyl)pyrimidin-5-yl)-7-methyl-11H-indazol-1-yl)acetyl)-N-(6-bromo-3-methylpyridin-2-yl)-5-methyl-2-azabicyclo[3.1.0]hexane-3-carboxamide], the concentration for half-maximal inhibition (IC50) (Table 2) was < 1000 nM.
`CC(=O)c1cn(CC(=O)N2[C@H](C(=O)Nc3nc(Br)c(F)cc3C)C[C@@]3(C)C[C@@H]23)c2c(C)cc(-c3cnc(CO)nc3)cc12` [Compound 78, (1R,3S,5R)-2-(2-(3-acetyl-5-(2-(hydroxymethyl)pyrimidin-5-yl)-7-methyl-1H-indol-1-yl)acetyl)-N-(6-bromo-5-fluoro-3-methylpyridin-2-yl)-5-methyl-2-azabicyclo[3.1.0]hexane-3-carboxamide]: the IC50 (Table 2) is < 1000 nM.
Still for that read-out and setting: the figure for `CC(=O)c1cn(CC(=O)N2[C@H](C(=O)Nc3nc(C(F)(F)F)ccc3C)C[C@@]3(C)C[C@@H]23)c2c(CF)cc(-c3cnc(C)nc3)cc12` [Compound 239, (1R,3S,5R)-2-(2-(3-acetyl-7-(fluoromethyl)-5-(2-methylpyrimidin-5-yl)-1H-indol-1-yl)acetyl)-5-methyl-N-(3-methyl-6-(trifluoromethyl)pyridin-2-yl)-2-azabicyclo[3.1.0]hexane-3-carboxamide] is < 1000 nM.
Regarding `CC(=O)c1nn(CC(=O)N2[C@H](C(=O)NC(C)Cc3ccsc3)C[C@@]3(C)C[C@@H]23)c2c(C)cc(-c3cnc(C)nc3)cc12` (stereo partly drawn) [Compound 183, (1R,3S,5R)-2-{2-[3-acetyl-7-methyl-5-(2-methylpyrimidin-5-yl)indazol-1-yl]acetyl}-5-methyl-N-[1-(thiophen-3-yl)propan-2-yl]-2-azabicyclo[3.1.0]hexane-3-carboxamide], under “Table 2”, the IC50 is < 1000 nM.
On the same count and under the same terms, the result for `CC(=O)c1cn(CC(=O)N2[C@H](C(=O)Nc3nc(C(F)(F)F)ccc3C)C[C@@]3(C)C[C@@H]23)c2c(C)cc(-c3cnc(C)c(C)n3)cc12` [Compound 222, (1R,3S,5R)-2-(2-(3-acetyl-5-(5,6-dimethylpyrazin-2-yl)-7-methyl-1H-indol-1-yl)acetyl)-5-methyl-N-(3-methyl-6-(trifluoromethyl)pyridin-2-yl)-2-azabicyclo[3.1.0]hexane-3-carboxamide] reads < 1000 nM.
Regarding `CC(=O)c1nn(CC(=O)N2[C@H](C(=O)N[C@H](C)C(C)C)C[C@@]3(C)C[C@@H]23)c2ccc(-c3cnc(C)nc3)cc12` [Compound 14, (1R,3S,5R)-2-(2-(3-Acetyl-5-(2-methylpyrimidin-5-yl)-1H-indazol-1-yl)acetyl)-5-methyl-N—((R)-3-methylbutan-2-yl)-2-azabicyclo[3.1.0]hexane-3-carboxamide], the concentration for half-maximal inhibition (IC50) (assay of Example 3) is < 1000 nM.
As to `CC(=O)c1nn(CC(=O)N2[C@H](C(=O)Nc3nc(Br)ccc3C)C[C@@]3(C)C[C@@H]23)c2cc(CF)c(Nc3cnc(C)nc3)cc12` [Compound 185, (1R,3S,5R)-2-(2-(3-acetyl-6-(fluoromethyl)-5-((2-methylpyrimidin-5-yl)amino)-1H-indazol-1-yl)acetyl)-N-(6-bromo-3-methylpyridin-2-yl)-5-methyl-2-azabicyclo[3.1.0]hexane-3-carboxamide], the IC50 (Table 2) is < 1000 nM.
As to `CC(=O)c1nn(CC(=O)N2[C@H](C(=O)Nc3nc(C(F)(F)F)ccc3C)C[C@@]3(C)C[C@@H]23)c2c(C)cc(-c3cnc4c(O)c(C)nn4c3)cc12` [Compound 232, (1R,3S,5R)-2-(2-(3-acetyl-5-(3-hydroxy-2-methylpyrazolo[1,5-a]pyrimidin-6-yl)-7-methyl-1H-indazol-1-yl)acetyl)-5-methyl-N-(3-methyl-6-(trifluoromethyl)pyridin-2-yl)-2-azabicyclo[3.1.0]hexane-3-carboxamide], the IC50 (Table 2) is < 1000 nM.
Take `CC(=O)c1nn(CC(=O)N2[C@H](C(=O)Nc3nc(Br)ccc3C)C[C@@]3(CO)C[C@@H]23)c2ccc(-c3cnc(CO)nc3)cc12` [Compound 32, (1R,3S,5S)-2-(2-(3-Acetyl-5-(2-(hydroxymethyl)pyrimidin-5-yl)-1H-indazol-1-yl)acetyl)-N-(6-bromo-3-methylpyridin-2-yl)-5-(hydroxymethyl)-2-azabicyclo[3.1.0]hexane-3-carboxamide]: where the note is “assay of Example 3”, the IC50 is < 1000 nM.
For the compound `CC(=O)c1nn(CC(=O)N2[C@H](C(=O)NCCc3ccc(Cl)cc3Cl)C[C@@]3(C)C[C@@H]23)c2c(C)cc(-c3cnc(C)nc3)cc12` [Compound 5, (1R,3S,5R)-2-(2-(3-Acetyl-7-methyl-5-(2-methylpyrimidin-5-yl)-1H-indazol-1-yl)acetyl)-N-(2,4-dichlorophenethyl)-5-methyl-2-azabicyclo[3.1.0]hexane-3-carboxamide], the IC50 (assay of Example 3) is < 1000 nM.
Consider `CC(=O)c1nn(CC(=O)N2[C@H](C(=O)Nc3nc(C(F)(F)F)ccc3C)C[C@@]3(C)C[C@@H]23)c2c(C)cc(-c3cnc(C(=O)O)nc3)cc12` [Compound 51, 5-(3-acetyl-7-methyl-1-(2-((1R,3S,5R)-5-methyl-3-((3-methyl-6-(trifluoromethyl)pyridin-2-yl)carbamoyl)-2-azabicyclo[3.1.0]hexan-2-yl)-2-oxoethyl)-1H-indazol-5-yl)pyrimidine-2-carboxylic acid], for which the IC50 (Table 2) was < 1000 nM.
`CC(=O)c1cn(CC(=O)N2[C@H](C(=O)Nc3nc(C(F)(F)F)ccc3C)C[C@@]3(C)C[C@@H]23)c2c(C)cc(-c3cnc(CO)nc3)cc12` [Compound 161, (1R,3S,5R)-2-(2-(3-acetyl-5-(2-(hydroxymethyl)pyrimidin-5-yl)-7-methyl-1H-indol-1-yl)acetyl)-5-methyl-N-(3-methyl-6-(trifluoromethyl)pyridin-2-yl)-2-azabicyclo[3.1.0]hexane-3-carboxamide]: the half-maximal inhibitory concentration (IC50) (Table 2) was < 1000 nM.
With `CC(=O)c1nn(CC(=O)N2[C@H](C(=O)N[C@H](C)CC3CC3)C[C@@]3(C)C[C@@H]23)c2c(C)cc(-c3cnc(C)nc3)cc12` [Compound 133, (1R,3S,5R)-2-{2-[3-acetyl-7-methyl-5-(2-methylpyrimidin-5-yl)indazol-1-yl]acetyl}-N-[(2R)-1-cyclopropylpropan-2-yl]-5-methyl-2-azabicyclo[3.1.0]hexane-3-carboxamide], the 50% inhibitory concentration (IC50) (Table 2) was < 1000 nM.
Turning to `CC(=O)c1cn(CC(=O)N2[C@H](C(=O)Nc3nc(Br)ccc3C)C[C@@]3(C)C[C@@H]23)c2c(C)cc(-c3cnc(CF)nc3)cc12` [Compound 221, (1R,3S,5R)-2-(2-(3-acetyl-5-(2-(fluoromethyl)pyrimidin-5-yl)-7-methyl-1H-indol-1-yl)acetyl)-N-(6-bromo-3-methylpyridin-2-yl)-5-methyl-2-azabicyclo[3.1.0]hexane-3-carboxamide], the IC50 (Table 2) is < 1000 nM.
Turning to `CC(=O)c1nn(CC(=O)N2[C@H](C(=O)Nc3nc(Br)ccc3C)C[C@@]3(C)C[C@@H]23)c2c(C)cc(-c3cnc(C(N)=O)nc3)cc12` [Compound 53, (1R,3S,5R)-2-(2-(3-acetyl-5-(2-carbamoylpyrimidin-5-yl)-7-methyl-1H-indazol-1-yl)acetyl)-N-(6-bromo-3-methylpyridin-2-yl)-5-methyl-2-azabicyclo[3.1.0]hexane-3-carboxamide], where the note is “Table 2”, the half-maximal inhibitory concentration (IC50) was < 1000 nM.
As for `CC(=O)c1cn(CC(=O)N2[C@H](C(=O)Nc3nccc(C(F)(F)F)n3)C[C@@]3(C)C[C@@H]23)c2c(C)cc(-c3cnc(C)nc3)cc12` [Compound 235, (1R,3S,5R)-2-(2-(3-acetyl-7-methyl-5-(2-methylpyrimidin-5-yl)-1H-indol-1-yl)acetyl)-5-methyl-N-(4-(trifluoromethyl)pyrimidin-2-yl)-2-azabicyclo[3.1.0]hexane-3-carboxamide], the IC50 (Table 2) is < 1000 nM.
For `CC(=O)c1nn(CC(=O)N2[C@H](C(=O)Nc3nc(Br)c(F)cc3C)C[C@@]3(C)C[C@@H]23)c2c(C)cc(-c3cnc(C(C)(C)O)nc3)cc12` [Compound 68, (1R,3S,5R)-2-(2-(3-acetyl-5-(2-(2-hydroxypropan-2-yl)pyrimidin-5-yl)-7-methyl-1H-indazol-1-yl)acetyl)-N-(6-bromo-5-fluoro-3-methylpyridin-2-yl)-5-methyl-2-azabicyclo[3.1.0]hexane-3-carboxamide], the half-inhibitory concentration (IC50) (Table 2) was < 1000 nM.
For `Cc1ncc(-c2cc3c(C(N)=O)nn(CC(=O)N4[C@H](C(=O)Nc5cc(F)cc(Br)n5)C[C@@]5(C)C[C@@H]45)c3c(C)n2)cn1` [Compound 140, 1-(2-((1R,3S,5R)-3-((6-bromo-4-fluoropyridin-2-yl)carbamoyl)-5-methyl-2-azabicyclo[3.1.0]hexan-2-yl)-2-oxoethyl)-7-methyl-5-(2-methylpyrimidin-5-yl)-1H-pyrazolo[3,4-c]pyridine-3-carboxamide], under “Table 2”, the IC50 was < 1000 nM.
Same read-out and setting: the figure for `CC(=O)c1cn(CC(=O)N2[C@H](C(=O)Nc3nc(C(F)(F)F)ccc3C)C[C@@]3(C)C[C@@H]23)c2ccc(-c3cnc4cc(C)nn4c3)cc12` [Compound 203, (1R,3S,5R)-2-(2-(3-acetyl-5-(2-methylpyrazolo[1,5-a]pyrimidin-6-yl)-1H-indol-1-yl)acetyl)-5-methyl-N-(3-methyl-6-(trifluoromethyl)pyridin-2-yl)-2-azabicyclo[3.1.0]hexane-3-carboxamide] is < 1000 nM.
